We go through one compound from patent US6482850B2, “Hydrolysis-promoting hydrophobic taxane derivatives” (priority 1995, dated 2002).

The test system of data set [1] is CDF1 mice. Kind of data set: In vivo toxicity, i.v. x 5, non-tumor bearing mice. To be noted: 30 days observation. The protocol: (§1) A separate group (n=5) was injected with concentrations of Cremophor® EL and ethanol (in PBS) equivalent to the highest concentration of the test treatment. Mortality was recorded daily and body weights taken at least twice weekly for an observation period of 30 days.

Data set [2] relates to CDF1 mice. Kind of data set: In vivo toxicity, i.p. x 5, non-tumor bearing mice. To be noted: 30 days observation. The procedure:
as §1

As for `CCCCCCCCCCCCCC[C@@H](Br)C(=O)O[C@@H](C(=O)O[C@H]1C[C@@]2(O)[C@@H](OC(=O)c3ccccc3)[C@@H]3[C@]4(OC(C)=O)CO[C@@H]4C[C@H](O)[C@@]3(C)C(=O)[C@H](OC(C)=O)C(=C1C)C2(C)C)[C@@H](NC(=O)c1ccccc1)c1ccccc1` [BrC16HT, 2′-(R)-[2-bromohexadecanoyl] paclitaxel], the “Number of Mice surviving/Total” value was 10/10 in the data set with CDF1 mice [1] (i.v. days 1 through 5, 12.5 mg/kg); 9/10 with CDF1 mice [1] (i.v. days 1 through 5, 25 mg/kg); 0/10 with CDF1 mice [1] (i.v. days 1 through 5, 37.5 mg/kg); 0/10 in the data set with CDF1 mice [1] (i.v. days 1 through 5, 50 mg/kg); 10/10 in the data set with CDF1 mice [2] (i.p. days 1 through 5, 12.5 mg/kg); 19/19 in the data set on CDF1 mice [2] (i.p. days 1 through 5, 25 mg/kg). In addition, the “Number of Mice surviving/Total” value is listed as 10/10 in the data set with CDF1 mice [2] (i.p. days 1 through 5, 37.5 mg/kg); 14/20 with CDF1 mice [2] (i.p. days 1 through 5, 50 mg/kg); 0/5 with CDF1 mice [2] (i.p. days 1 through 5, 75 mg/kg); 0/2 in the data set with CDF1 mice [2] (i.p. days 1 through 5, 100 mg/kg).
